Assay results taken from patent US11857536B2, “Glucokinase activator for treating diabetes with renal impairment” (HUA Medicine (Shanghai) Ltd., priority 2020, dated 2024).
Like-named read-outs stand apart in the source and are kept apart here.

Assay: Phase I open-label, parallel-group, single oral dose pharmacokinetic study of dorzagliatin in ESRD and healthy subjects
Format: in vivo, human
Conditions: single 25 mg oral dose; for AUC(0-inf) / AUC(0-t) / Cmax: human, po, 25 mg; for Cmax: read-out: Cmax, LS mean
Source text: This phase I study was to access the pharmacokinetics and safety of a single dose of dorzagliatin in renally impaired and heathy subjects. The study was divided into two phases: Phase 1 having two groups (P1 and H) and Phase 2 having three groups (P2, P3, and P4). Phase 2 would start after the completion of Phase 1 and determining an increase of ≥100% in the average AUC (AUClast or AUCinf) of the ESRD subjects than that of the healthy subjects in Phase 1. The ESRD subjects of Group P1 were matched closely with the healthy subjects as to their sexes, ages (±5 yrs), and BMIs (±15%).
In Phase 1, eligible subjects were admitted to a clinical research center (CRC) on Day −2 or −1. On Day −1, the subjects had no additional food after a standard dinner for at least 10 h. In the morning of Day 1, the subjects received dorzagliatin (25 mg) orally with empty stomach. […] Blood samples were collected at the following time points: within 60 min pre-dose; and at 0.25, 0.5, 1, 1.5, 2, 2.5, 3, 4, 6, 8, 12, 24, 36, 48, and 72 h post-dose. Urine samples for the pharmacokinetic (PK) analysis were collected at the following time points: within 60 min pre-dose; and at 0˜4, 4˜8, 8˜12, 12˜24, 24˜36, 36˜48, and 48˜72 h post-dose. The samples were analyzed using LC-MS/MS. The plasma concentration-time data for dorzagliatin were analyzed using a non-compartmental model to obtain PK parameters, including Cmax, AUClast, AUCinf, Cmax,u, AUClast,u, and AUCinf,u. An ANOVA analysis was performed on the data between H and P1 groups.

- Cmax, u, LS mean (Group H (healthy), fasted): 29.5 ng/mL
- AUClast, LS mean (Group H (healthy), fasted, plasma): 1857 ng·h/mL
- Cmax, u, LS mean (Group P1 (ESRD), fasted): 27.5 ng/mL
- AUC(0-inf) (plasma, Group H (healthy), fasted, plasma, read-out: AUCinf, LS mean): 1890 ng·h/mL
- AUC(0-inf) (plasma, Group H (healthy), fasted, read-out: AUCinf, u, LS mean): 126 ng·h/mL
- AUC(0-t) (plasma, Group H (healthy), fasted, read-out: AUClast, u, LS mean): 124 ng·h/mL
- Cmax (plasma, Group H (healthy, eGFR ≥90), fasted, plasma): 442 ng/mL
- AUC(0-inf) (plasma, Group P1 (ESRD), fasted, plasma, read-out: AUCinf, LS mean): 2070 ng·h/mL
- AUC(0-t) (plasma, Group P1 (ESRD), fasted, plasma, read-out: AUClast, LS mean): 2060 ng·h/mL
- AUC(0-inf) (plasma, Group P1 (ESRD), fasted, read-out: AUCinf, u, LS mean): 163 ng·h/mL
- AUC(0-t) (plasma, Group P1 (ESRD), fasted, read-out: AUClast, u, LS mean): 162 ng·h/mL
- Cmax (plasma, Group P1 (ESRD, eGFR <15, no dialysis), fasted, plasma): 356 ng/mL
- Cmax, u GMR (P1/H) (ratio ESRD/healthy): 0.93
- AUCinf in ESRD subjects (Group P1) compared to healthy subjects (Group H), in words: substantially the same
- Cmax in ESRD subjects (Group P1) compared to healthy subjects (Group H), in words: slightly decreased
- Difference in AUC between Groups H and P1, in words (ANOVA, preset criterion AUC increase >100% not met): no significant difference
Structure (SMILES): CC(C)C[C@@H](C(=O)Nc1ccn(C[C@@H](O)CO)n1)N1CC(Oc2ccccc2Cl)=CC1=O [dorzagliatin, (S)-2-(4-(2-chlorophenoxy)-2-oxo-2,5-dihydro-1H-pyrrol-1-yl)-N-(1-((R)-2,3-dihydroxypropyl)-1H-pyrazol-3-yl)-4-methylpentanamide]
